Results reported in the supplement of paper PMC10627819.

Tests used:
S. pneumoniae D39V [1] = experiment: Bliss interaction score (quartile over a dose matrix) (fitness difference); higher = more antagonism (negative = synergy)
Outline: (§1)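 Each OD595 reading at entry into stationary phase was scaled to the robust mean of the untreated wells on its plate, with a ceiling of 1. These ratios define fitness, and single-drug fitness was inferred from combinations. The Bliss score compares observed fitness with the product-based expectation and is reported as quartiles across all replicate types, technical, biological and donor/recipient.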

S. aureus DSM 20231 [2] = experiment: as above
Outline: as §1

S. aureus Newman [3] = experiment: as above
Outline: as §1

B. subtilis 168 [4] = experiment: as above
Outline: as §1

S. pneumoniae D39V [5] = experiment: fitness (endpoint OD595 vs no drug) (fraction); higher = more growth
Outline: (§2)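 Background-subtracted growth curves were the basis for fitness, taken as the optical density at entry into stationary phase over the robust mean of no-drug control wells. A cap of 1 was applied. The curves came from OD595 readings every 30 min for 14 h at 37 °C, in 384-well plates seeded at OD595 0.01 with 30 µl, or 55 µl for S. pneumoniae.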

S. aureus DSM 20231 [6] = experiment: as above
Outline: as §2

B. subtilis 168 [7] = experiment: as above
Outline: as §2

S. aureus Newman [8] = experiment: as above
Outline: as §2

[9] = first compound 1.562 µg/mL, partner 0.125 µg/mL
[10] = first compound 3.124 µg/mL, partner 0.125 µg/mL
[11] = first compound 1.562 µg/mL, partner 2 µg/mL
[12] = first compound 3.124 µg/mL, partner 2 µg/mL
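For Bliss interaction score (quartile over a dose matrix) in this document: first quartile when negative (synergy) and third quartile when positive (antagonism).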

C[C@@H]1O[C@@H]1P(=O)(O)O [Fosfomycin] + CC(=O)NC[C@H]1CN(c2ccc(N3CCOCC3)c(F)c2)C(=O)O1 [Linezolid]
Bliss interaction score (S. pneumoniae D39V [1]): 0.0981 | Bliss interaction score (S. aureus DSM 20231 [2]): 0.0569 | Bliss interaction score (S. aureus Newman [3]): -0.134 | Bliss interaction score (B. subtilis 168 [4]): 0.123 | fitness (S. pneumoniae D39V [5]; first compound 1.25 µg/mL, partner 0.105 µg/mL): 0.839 | fitness (S. pneumoniae D39V [5]; first compound 1.25 µg/mL, partner 0.21 µg/mL): 0.76 | fitness (S. pneumoniae D39V [5]; first compound 1.25 µg/mL, partner 0.4 µg/mL): 0.314 | fitness (S. pneumoniae D39V [5]; first compound 1.25 µg/mL, partner 0.42 µg/mL): 0.605 | fitness (S. pneumoniae D39V [5]; first compound 1.25 µg/mL, partner 0.8 µg/mL): 0.138 | fitness (S. pneumoniae D39V [5]; first compound 2.5 µg/mL, partner 0.105 µg/mL): 0.803 | fitness (S. pneumoniae D39V [5]; first compound 2.5 µg/mL, partner 0.2 µg/mL): 0.626 | fitness (S. pneumoniae D39V [5]; first compound 2.5 µg/mL, partner 0.21 µg/mL): 0.729 | fitness (S. pneumoniae D39V [5]; first compound 2.5 µg/mL, partner 0.4 µg/mL): 0.315 | fitness (S. pneumoniae D39V [5]; first compound 2.5 µg/mL, partner 0.42 µg/mL): 0.522 | fitness (S. pneumoniae D39V [5]; first compound 2.5 µg/mL, partner 0.8 µg/mL): 0.132 | fitness (S. pneumoniae D39V [5]; first compound 5 µg/mL, partner 0.105 µg/mL): 0.721 | fitness (S. pneumoniae D39V [5]; first compound 5 µg/mL, partner 0.2 µg/mL): 0.564 | fitness (S. pneumoniae D39V [5]; first compound 5 µg/mL, partner 0.21 µg/mL): 0.704 | fitness (S. pneumoniae D39V [5]; first compound 5 µg/mL, partner 0.4 µg/mL): 0.311 | fitness (S. pneumoniae D39V [5]; first compound 5 µg/mL, partner 0.42 µg/mL): 0.421 | fitness (S. pneumoniae D39V [5]; first compound 5 µg/mL, partner 0.8 µg/mL): 0.136 | fitness (S. aureus DSM 20231 [6]; first compound 0.781 µg/mL, partner 0.125 µg/mL): 0.691 | fitness (S. aureus DSM 20231 [6]; first compound 0.781 µg/mL, partner 0.25 µg/mL): 0.581 | fitness (S. aureus DSM 20231 [6]; first compound 0.781 µg/mL, partner 0.5 µg/mL): 0.167 | fitness (S. aureus DSM 20231 [6]; first compound 0.781 µg/mL, partner 1 µg/mL, one replicate): 0.0309 | fitness (S. aureus DSM 20231 [6]; [9]): 0.598 | fitness (S. aureus DSM 20231 [6]; first compound 1.562 µg/mL, partner 0.25 µg/mL): 0.495 | fitness (S. aureus DSM 20231 [6]; first compound 1.562 µg/mL, partner 0.5 µg/mL): 0.0991 | fitness (S. aureus DSM 20231 [6]; first compound 1.562 µg/mL, partner 1 µg/mL, one replicate): 0.0297 | fitness (S. aureus DSM 20231 [6]; [10]): 0.459 | fitness (S. aureus DSM 20231 [6]; first compound 3.124 µg/mL, partner 0.25 µg/mL): 0.339 | fitness (S. aureus DSM 20231 [6]; first compound 3.124 µg/mL, partner 0.5 µg/mL): 0.0673 | fitness (S. aureus DSM 20231 [6]; first compound 3.124 µg/mL, partner 1 µg/mL, one replicate): 0.0078 | fitness (B. subtilis 168 [7]; first compound 1.562 µg/mL, partner 0.0625 µg/mL, one replicate): 0.726 | fitness (B. subtilis 168 [7]; [9]): 0.507 | fitness (B. subtilis 168 [7]; first compound 3.124 µg/mL, partner 0.0625 µg/mL, one replicate): 0.606 | fitness (B. subtilis 168 [7]; [10]): 0.437 | fitness (B. subtilis 168 [7]; first compound 6.248 µg/mL, partner 0.0625 µg/mL, one replicate): 0.368 | fitness (B. subtilis 168 [7]; first compound 6.248 µg/mL, partner 0.125 µg/mL): 0.304

COc1cccc2c1C(=O)c1c(O)c3c(c(O)c1C2=O)C[C@@](O)(C(=O)CO)C[C@@H]3O[C@H]1C[C@H](N)[C@H](O)[C@H](C)O1 [Doxorubicin] + CC(C1CCC(C(O1)OC2C(CC(C(C2O)OC3C(C(C(CO3)(C)O)NC)O)N)N)N)NC [Gentamicin]
Bliss interaction score (S. pneumoniae D39V [1]; main component drawn): 0.0449 | Bliss interaction score (S. aureus DSM 20231 [2]; main component drawn): 0.037 | Bliss interaction score (S. aureus Newman [3]; main component drawn): -0.0672 | Bliss interaction score (B. subtilis 168 [4]; main component drawn): -0.258 | fitness (S. pneumoniae D39V [5]; first compound 0.25 µg/mL, partner 2 µg/mL, main component drawn): 0.919 | fitness (S. pneumoniae D39V [5]; first compound 0.25 µg/mL, partner 4 µg/mL, main component drawn): 0.919 | fitness (S. pneumoniae D39V [5]; first compound 0.25 µg/mL, partner 8 µg/mL, main component drawn): 0.882 | fitness (S. pneumoniae D39V [5]; first compound 0.5 µg/mL, partner 2 µg/mL, main component drawn): 0.937 | fitness (S. pneumoniae D39V [5]; first compound 0.5 µg/mL, partner 4 µg/mL, main component drawn): 0.943 | fitness (S. pneumoniae D39V [5]; first compound 0.5 µg/mL, partner 8 µg/mL, main component drawn): 0.848 | fitness (S. pneumoniae D39V [5]; first compound 1 µg/mL, partner 2 µg/mL, main component drawn): 0.806 | fitness (S. pneumoniae D39V [5]; first compound 1 µg/mL, partner 4 µg/mL, main component drawn): 0.822 | fitness (S. pneumoniae D39V [5]; first compound 1 µg/mL, partner 8 µg/mL, main component drawn): 0.76 | fitness (S. aureus Newman [8]; first compound 0.625 µg/mL, partner 0.375 µg/mL, main component drawn): 0.753 | fitness (S. aureus Newman [8]; first compound 0.625 µg/mL, partner 0.5 µg/mL, main component drawn): 0.841 | fitness (S. aureus Newman [8]; first compound 0.625 µg/mL, partner 0.75 µg/mL, main component drawn): 0.778 | fitness (S. aureus Newman [8]; first compound 0.625 µg/mL, partner 1 µg/mL, main component drawn): 0.937 | fitness (S. aureus Newman [8]; first compound 0.625 µg/mL, partner 1.5 µg/mL, main component drawn): 0.777 | fitness (S. aureus Newman [8]; first compound 0.625 µg/mL, partner 2 µg/mL, main component drawn): 0.875 | fitness (S. aureus Newman [8]; first compound 1.25 µg/mL, partner 0.375 µg/mL, main component drawn): 0.794 | fitness (S. aureus Newman [8]; first compound 1.25 µg/mL, partner 0.5 µg/mL, main component drawn): 0.783 | fitness (S. aureus Newman [8]; first compound 1.25 µg/mL, partner 0.75 µg/mL, main component drawn): 0.784 | fitness (S. aureus Newman [8]; first compound 1.25 µg/mL, partner 1 µg/mL, main component drawn): 0.826 | fitness (S. aureus Newman [8]; first compound 1.25 µg/mL, partner 1.5 µg/mL, main component drawn): 0.793 | fitness (S. aureus Newman [8]; first compound 1.25 µg/mL, partner 2 µg/mL, main component drawn): 0.887 | fitness (S. aureus Newman [8]; first compound 2.5 µg/mL, partner 0.375 µg/mL, main component drawn): 0.774 | fitness (S. aureus Newman [8]; first compound 2.5 µg/mL, partner 0.5 µg/mL, main component drawn): 0.734 | fitness (S. aureus Newman [8]; first compound 2.5 µg/mL, partner 0.75 µg/mL, main component drawn): 0.788 | fitness (S. aureus Newman [8]; first compound 2.5 µg/mL, partner 1 µg/mL, main component drawn): 0.779 | fitness (S. aureus Newman [8]; first compound 2.5 µg/mL, partner 1.5 µg/mL, main component drawn): 0.796 | fitness (S. aureus Newman [8]; first compound 2.5 µg/mL, partner 2 µg/mL, main component drawn): 0.809 | fitness (B. subtilis 168 [7]; first compound 0.625 µg/mL, partner 0.0625 µg/mL, main component drawn): 0.905 | fitness (B. subtilis 168 [7]; first compound 0.625 µg/mL, partner 0.25 µg/mL, main component drawn): 0.079 | fitness (B. subtilis 168 [7]; first compound 1.25 µg/mL, partner 0.0625 µg/mL, main component drawn): 0.804 | fitness (B. subtilis 168 [7]; first compound 1.25 µg/mL, partner 0.25 µg/mL, main component drawn): 0.086 | fitness (B. subtilis 168 [7]; first compound 2.5 µg/mL, partner 0.25 µg/mL, main component drawn): 0.0548

C[C@@H]1O[C@@H]1P(=O)(O)O [Fosfomycin] + CN[C@@H]1[C@H](O[C@H]2[C@H](O[C@H]3[C@H](O)[C@@H](O)[C@H](N=C(N)N)[C@@H](O)[C@@H]3N=C(N)N)O[C@@H](C)[C@]2(O)C=O)O[C@@H](CO)[C@H](O)[C@H]1O [Streptomycin]
Bliss interaction score (S. pneumoniae D39V [1]): -0.0437 | Bliss interaction score (S. aureus DSM 20231 [2]): -0.14 | Bliss interaction score (S. aureus Newman [3]): -0.106 | Bliss interaction score (B. subtilis 168 [4]): -0.187 | fitness (S. pneumoniae D39V [5]; first compound 1.25 µg/mL, partner 2 µg/mL): 0.919 | fitness (S. pneumoniae D39V [5]; first compound 1.25 µg/mL, partner 4 µg/mL): 0.921 | fitness (S. pneumoniae D39V [5]; first compound 1.25 µg/mL, partner 8 µg/mL): 0.902 | fitness (S. pneumoniae D39V [5]; first compound 1.25 µg/mL, partner 16 µg/mL, one replicate): 0.765 | fitness (S. pneumoniae D39V [5]; first compound 2.5 µg/mL, partner 2 µg/mL): 0.903 | fitness (S. pneumoniae D39V [5]; first compound 2.5 µg/mL, partner 4 µg/mL): 0.9 | fitness (S. pneumoniae D39V [5]; first compound 2.5 µg/mL, partner 8 µg/mL): 0.918 | fitness (S. pneumoniae D39V [5]; first compound 2.5 µg/mL, partner 16 µg/mL, one replicate): 0.714 | fitness (S. pneumoniae D39V [5]; first compound 5 µg/mL, partner 2 µg/mL): 0.715 | fitness (S. pneumoniae D39V [5]; first compound 5 µg/mL, partner 4 µg/mL): 0.747 | fitness (S. pneumoniae D39V [5]; first compound 5 µg/mL, partner 8 µg/mL): 0.722 | fitness (S. pneumoniae D39V [5]; first compound 5 µg/mL, partner 16 µg/mL, one replicate): 0.436 | fitness (S. aureus Newman [8]; first compound 0.781 µg/mL, partner 1 µg/mL): 0.599 | fitness (S. aureus Newman [8]; first compound 0.781 µg/mL, partner 2 µg/mL): 0.565 | fitness (S. aureus Newman [8]; first compound 1.562 µg/mL, partner 1 µg/mL): 0.517 | fitness (S. aureus Newman [8]; [11]): 0.467 | fitness (S. aureus Newman [8]; first compound 3.124 µg/mL, partner 1 µg/mL): 0.156 | fitness (S. aureus Newman [8]; [12]): 0.131 | fitness (S. aureus Newman [8]; first compound 3.124 µg/mL, partner 4 µg/mL): 0.0427 | fitness (B. subtilis 168 [7]; [11]): 0.664 | fitness (B. subtilis 168 [7]; [12]): 0.399
